Our source for the EC50 and percent response, lower = inhibition values is PubChem BioAssay AID504931 (NMMLSC, 2011).

Activity calls are given as the source filed them.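 Rule for the calls: active = compounds with a reliable fitted curve whose half-effect concentration is below 50 µM; inactive = the rest.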

The subject of test [1] is S. cerevisiae aged cells, superoxide DHE fluorescence, 7 d. Briefly: S. cerevisiae superoxide reduction in aged cells – powder samples, confirmation, dose response (AID 504931).
Test in test [2]: as above
The settings on record: S. cerevisiae aged cells, superoxide DHE fluorescence, 7 d; at 100 µM (top of the series).

In the case of `Nc1cc2nc3ccccc3nc2cc1N`, the EC50 in test [1] is 4.5 µM. For the compound `CCN(CC)c1ccc2nc3ccc(N)cc3[n+](-c3ccccc3)c2c1`, the EC50 in test [1] was 26.4 µM.

For the compound `c1ccc2[nH]c3cc4ncnc4cc3nc2c1`, the EC50 in test [1] was 1.11 µM. With `c1ccc2nc3ccccc3nc2c1`, the percent response, lower = inhibition in test [2] is 119% (inactive). Turning to `CC(C)(C)n1nc(-c2ccc(F)cc2)c2c(N)ncnc21`, the EC50 in test [1] was 17.2 µM. As for `O=C(Nc1cccc2nccnc12)c1ccccc1`, the percent response, lower = inhibition in test [2] was 80.3% (inactive).

With `Cn1c(O)c(C(=Nc2ccc(F)cc2)c2ccccc2Cl)c(=O)n(C)c1=O`, in test [2], the percent response, lower = inhibition is 98.6% (inactive). Consider `Cc1cc(C)cc(NC(=O)CN2CCN(c3ccccn3)CC2)c1`, for which, in test [2], the percent response, lower = inhibition was 99.1% (inactive). Same read-out and setting: then `Nc1ccc2nccnc2c1`, with 96.2% (inactive); and `O=C(Nc1ccc2nccnc2c1)NC1CCCCC1`, with 96% (inactive); and `O=C(c1cccc2nccnc12)N1CCN(c2ccccc2F)CC1`, with 101% (inactive). As to `N#CCc1nn(-c2ccccc2)c2ncnc(N)c12`, in test [1], the EC50 was 0.8 µM. Consider `OCC[n+]1c2ccccc2nc2ccc(N3CCOCC3)cc21`, for which the EC50 in test [1] is 10.7 µM. As to `O=C(/C=C/c1ccccc1)NC(=S)NNC(=O)Cc1cccs1`, the percent response, lower = inhibition in test [2] was 74.9% (inactive). Same read-out and setting: then `O=C(c1ccc2nccnc2c1)N1CCCCC1`, with 105% (inactive); and `C[C@@]12C(=O)OC(=O)[C@]1(C)C1CCC2O1`, with 351% (inactive); and `O=C(Nc1ccc2nccnc2c1)N1CCOCC1`, with 96.4% (inactive).

As to `CCC(=Nc1ccccc1O)C1=C(O)CC(c2ccccc2)CC1=O` (stereo not drawn), the percent response, lower = inhibition in test [2] was 62.2% (inactive). In the case of `COc1cccc2nc3cc(C)c(C)cc3nc12`, in test [1], the EC50 was 0.9 µM. As for `O=C(c1ccc2nccnc2c1)N1CCN(c2ccccc2)CC1`, the percent response, lower = inhibition in test [2] is 89.9% (inactive). On the same count and under the same terms, to `COc1ccc2nc3ccccc3nc2c1` belongs 108% (inactive). Turning to `CCN(CC)C(=O)CSc1nnc(-c2cccc(OC)c2)o1`, in test [2], the percent response, lower = inhibition was 104% (inactive). As for `FC(F)(F)c1nc2cc3nc4ccccc4[nH]c3cc2n1`, in test [1], the EC50 is 0.51 µM.

Take `CC(C)(C)n1nc(-c2ccc(Cl)cc2)c2c(N)ncnc21`: the EC50 in test [1] was 7.98 µM. Turning to `O=C(Nc1ccccc1)c1ccc2nccnc2c1`, the percent response, lower = inhibition in test [2] is 96.8% (inactive). As for `CCN(CC)C(=O)c1ccc2nc3ccccc3nc2c1`, the EC50 in test [1] is 0.8 µM. For `O=C(c1cccc2nccnc12)N1CCOc2ccccc21`, in test [2], the percent response, lower = inhibition was 96.8% (inactive).

`CCc1nc(NC(C)(C)C)c2cnn(-c3ccccc3)c2n1`: the percent response, lower = inhibition in test [2] is 117% (inactive).

On to `C=CCSc1ccc(-c2ccc([N+](=O)[O-])cc2)o1`, for which the percent response, lower = inhibition in test [2] was 54.8% (inactive). As to `CCN(CC)C(=O)c1cccc2nc3ccccc3nc12`, the EC50 in test [1] was 2.8 µM. For the compound `CC(C)(C)Nc1ncnc2c1cnn2-c1ccccc1`, in test [2], the percent response, lower = inhibition was 94.4% (inactive). As to `COc1ccc2c(c1)c1nnc(SC)nc1n2C`, the EC50 in test [1] is 1.57 µM. `O=C(Nc1ccc2nc3ccccc3nc2c1)c1ccc(Br)cc1`: the percent response, lower = inhibition in test [2] is 88% (inactive). On to `O=C(Nc1cccc(Cl)c1)Nc1ccc2nccnc2c1`, for which the percent response, lower = inhibition in test [2] was 87.5% (inactive). Consider `COc1ccc2nc3ccccc3[n+]([O-])c2c1`, for which the percent response, lower = inhibition in test [2] was 122% (inactive). For `O=C(Nc1ccc2nccnc2c1)c1cccc2nccnc12`, in test [2], the percent response, lower = inhibition is 80.9% (inactive). For the compound `CC(C)OC(=O)c1ccc2nc3ccccc3nc2c1`, the EC50 in test [1] is 10.9 µM. Regarding `CN(C)C(=O)c1ccc2nccnc2c1`, the percent response, lower = inhibition in test [2] was 181% (inactive).

Regarding `O=C(O)c1ccc2nccnc2c1`, the percent response, lower = inhibition in test [2] was 85.8% (inactive). As for `CNc1ccc2nc3ccccc3[n+](C)c2c1`, the EC50 in test [1] was 6.01 µM. As to `CC(C)(C)NC(=O)Nc1ccc2nccnc2c1`, the percent response, lower = inhibition in test [2] was 101% (inactive). With `N#CC(c1nc2ccccc2nc1N1CCCC1)S(=O)(=O)c1ccccc1` (stereo not drawn), the percent response, lower = inhibition in test [2] was 89.3% (inactive).

With `COc1ccc2nc3ccccc3nc2c1NC(=O)c1ccccc1Cl`, the EC50 in test [1] was 1.11 µM. Regarding `O=C(OCc1c(F)cccc1Cl)c1cnc2ccccc2n1`, the percent response, lower = inhibition in test [2] is 86.9% (inactive).

Take `CCn1c2ccccc2c2n[nH]c(=S)nc21`: the percent response, lower = inhibition in test [2] was 99.9% (inactive). For `O=C1c2c(O)ccc(O)c2C(=O)c2c(NCCNCCO)ccc(NCCNCCO)c21`, the EC50 in test [1] is 3.41 µM. With `CSc1nnc(-c2ccc([N+](=O)[O-])cc2)o1`, in test [2], the percent response, lower = inhibition was 74% (inactive).

As to `CC(C)OC(=O)CSc1nnc(-c2ccc(Cl)cc2Cl)o1`, the percent response, lower = inhibition in test [2] is 97.2% (inactive). In the case of `CCCCCNC(=O)C(=O)C1C(=O)Nc2ccccc21` (stereo not drawn), the EC50 in test [1] was 0.33 µM. Turning to `O=C(O)c1cnc2ccccc2n1`, the percent response, lower = inhibition in test [2] is 75.7% (inactive).

Regarding `Cc1cc2nc3ccc(N(C)C)cc3nc2cc1N`, the percent response, lower = inhibition in test [2] was 89.3% (inactive). Turning to `Cn1c(=O)[nH]c2nncnc2c1=O`, the percent response, lower = inhibition in test [2] is 111% (inactive). For the compound `CC(=O)Nc1ccc2nc3ccccc3nc2c1`, the EC50 in test [1] is 0.33 µM.

As for `O=C(CN1CCN(c2ccccn2)CC1)Nc1ccccc1F`, in test [2], the percent response, lower = inhibition is 98.8% (inactive).

Regarding `COc1ccc2nc3ccccc3nc2c1N`, the EC50 in test [1] is 2.32 µM. Consider `C=CCOn1c(=O)c(-c2cccs2)[n+]([O-])c2ccccc21`, for which, in test [2], the percent response, lower = inhibition is 112% (inactive).

For `COc1ccc2cc(C3CC(c4ccco4)=NN3S(=O)(=O)c3ccccc3)c(Cl)nc2c1` (stereo not drawn), the percent response, lower = inhibition in test [2] was 97.3% (inactive). Turning to `CN(C)CCNc1ncnc2c1cnn2-c1ccc(Cl)cc1`, the percent response, lower = inhibition in test [2] is 92% (inactive). On to `O=C(NCc1ccccc1)c1ccc2nccnc2c1`, for which, in test [2], the percent response, lower = inhibition was 178% (inactive). Turning to `O=C(Nc1ccc2nccnc2c1)N1CCN(c2ccccc2)CC1`, in test [2], the percent response, lower = inhibition was 91.3% (inactive).

Turning to `Cc1ccccc1NC(=O)c1cccc2nc3ccccc3nc12`, the EC50 in test [1] was 5.45 µM. Turning to `Cc1cc(C)c2[nH]c3nc(SCC(=O)O)nnc3c2c1`, the percent response, lower = inhibition in test [2] is 92.4% (inactive).

Take `[O-][n+]1c2ccccc2[n+]([O-])c2cc(O)ccc21`: in test [2], the percent response, lower = inhibition was 126% (inactive).

In the case of `C#CCSc1ccc(-c2ccc([N+](=O)[O-])cc2)o1`, in test [2], the percent response, lower = inhibition was 58% (inactive). Regarding `CN1CCN(C(=O)c2ccc3nccnc3c2)CC1`, the percent response, lower = inhibition in test [2] was 105% (inactive). `CC(C)CSc1nnc2c3ccccc3n(C)c2n1`: the percent response, lower = inhibition in test [2] was 110% (inactive). As to `O=C(/C=C/c1cccs1)NC(=S)NNC(=O)Cc1cccs1`, the percent response, lower = inhibition in test [2] was 66.6% (inactive). On to `Cc1ccc(-c2nn(C(C)(C)C)c3ncnc(N)c23)cc1`, for which, in test [1], the EC50 is 2.25 µM.

As for `O=C(c1cccc2nc3ccccc3nc12)N1CCOCC1`, in test [1], the EC50 was 2.33 µM. On to `O=c1[nH]c(O)c(C=Nc2ccc(F)c(Cl)c2)c(=O)[nH]1`, for which the percent response, lower = inhibition in test [2] was 106% (inactive). As to `C[n+]1c2ccccc2nc2ccc(NCCO)cc21`, in test [2], the percent response, lower = inhibition is 62.9% (inactive). As to `O=C(O)c1cccc2nccnc12`, the percent response, lower = inhibition in test [2] is 93.9% (inactive). With `Oc1cccc2nc3ccccc3nc12`, in test [2], the percent response, lower = inhibition was 194% (inactive).

As a reminder, the EC50 is the concentration that produces a half-maximal response.
